This is an account of results in US20250066411A1, “GL[…] FOR L-SIGN” (priority 2022, published 2025).

What all share (assay type): binding
Assay [1] has as its target T1, L-SIGN ECD (Homo sapiens, UniProt Q9H2X3).
T1 construct: towards the extra cellular domain (ECD) of the DC-SIGN and L-SIGN receptors
T1 sequence (Q9H2X3 71-399 limits assumed): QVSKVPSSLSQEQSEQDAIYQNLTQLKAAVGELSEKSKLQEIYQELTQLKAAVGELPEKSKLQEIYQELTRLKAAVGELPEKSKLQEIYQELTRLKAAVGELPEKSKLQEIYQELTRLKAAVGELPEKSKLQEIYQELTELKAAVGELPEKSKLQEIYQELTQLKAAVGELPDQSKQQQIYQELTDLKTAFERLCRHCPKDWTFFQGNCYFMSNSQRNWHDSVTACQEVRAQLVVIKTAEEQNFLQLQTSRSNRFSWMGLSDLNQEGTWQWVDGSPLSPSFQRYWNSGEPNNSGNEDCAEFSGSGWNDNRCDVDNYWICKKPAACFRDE
The assay can be described thus: SPR competition experiments on a sensorchip functionalized with SARS-CoV-2 Spike protein, L-SIGN ECD co-injected. The conditions noted are these: for IC50: 20 μM L-SIGN ECD co-injected, Spike HexaPro surface, 25° C., read-out: IC50 (inhibition of L-SIGN); for selectivity for L-SIGN over DC-SIGN: SPR competition, L-SIGN vs DC-SIGN ECD; for inhibits the L-SIGN receptor better than D-mannose: relative to D-mannose IC50.

Assay [2] concerns the target T1, L-SIGN ECD. The assay can be described thus: Isothermal Titration Calorimetry (ITC) with L-SIGN ECD. As to the method:
The interaction of compound 106a with the L-SIGN receptor was also confirmed by Isothermal Titration Calorimetry (ITC) experiments (FIG. 2).
These experiments were carried out on a MicroCal PEAQ-ITC apparatus, at 25° C., in buffer A (25 mM Tris pH 8, 150 mM NaCl, 4 mM CaCl2). L-SIGN ECD (172 μM) was titrated with consecutive 2 μL injections of a 2 mM solution of compound 106a in Calcium buffer (30 μL of 20 mM compound 106a+270 μL of Calcium buffer).
The analysis was performed in triplicate and the graphs shown in FIG. 2 (which report, respectively, Differential Power (DP) vs. time, and ΔH vs. molar ratio) are representative of the average of the three experiments.
For orientation: In ITC the heat of successive injections is recorded.

Assay [3] has as its target T1, L-SIGN ECD. The assay can be described thus: SPR direct interaction experiments on oriented immobilized biotinylated ECD. Particulars: read-out: apparent Kd for L-SIGN; Steady State Affinity model, ligands 2 nM to 500 nM. As to the method: For this experiment the extracellular domain (ECD) of DC-SIGN and L-SIGN were immobilized onto the SPR surface in an oriented manner, by their N-terminus, taking advantage of biotine/streptavidin interaction. To generate DC/L SIGN specifically biotinylated at the N-terminus, 3 glycine residues at the N-terminus of the protein were added by site directed mutagenesis in order to allow a sortaging procedure. The biotinylated versions of DC/L-SIGN ECDs (Biot-ECDs) were prepared by sortaging as described in Achilli, S., Monteiro, J. T., Serna, S., Mayer-Lambertz, S., Thépaut, M., Le Roy, A., Ebel, C., Reichardt, N.-C., Lepenies, B., Fieschi, F., and Vives, C. (2020) […], Artificial Tetrameric Lectins: A Tool to Screen Ligand and Pathogen Interactions. IJMS 21, 1-19 using a commercial synthetic biotinylated peptide,
To generate the oriented SPR surfaces, the flow cells were functionalized with Streptavidin in 10 mM Acetate buffer pH 4 and the remaining activated groups were blocked with 1 M ethanolamine pH 8. After blocking, the flow cells were treated with 100 μL of 10 mM HCl to remove non-specifically bound proteins and 100 μL of 50 mM NaOH/1M NaCl to expose surface to regeneration protocol. Priming of the surface was done using the running buffer (25 mM Tris pH 8, 150 mM NaCl, 4 mM CaCl2), 0.05% Tween). […] Surfaces are ready for interaction. […]

Consider `NCc1cn(C2C(OCCCl)OC(CO)C(O)C2O)nn1` (centres unmarked) [Compound 103, reference compound], for which, at L-SIGN ECD [1], the IC50 (commonly the concentration at which inhibition is half-maximal) stood at 278 µM.

Consider `N=C(N)NCc1cn([C@H]2C(OCCCl)OC(CO)[C@@H](O)[C@@H]2O)nn1` (some centres unmarked) [Compound 106a], for which, at L-SIGN ECD [1], the concentration for half-maximal inhibition (IC50) amounted to 24 µM, the “selectivity for L-SIGN over DC-SIGN” value is “up to 58 fold” and the “inhibits the L-SIGN receptor better than D-mannose” value is reported as 80 times. Besides, the “inhibits the L-SIGN receptor better than compound 103” value on L-SIGN ECD [1] (relative to compound 103 IC50) is reported as 11 times. The molecule further had a Kd at L-SIGN ECD [2] of 12.8 ± 1.5 µM. In addition, on L-SIGN ECD [2] (ITC), the “enthalpy contribution (ΔH) of the interaction” value is given as “very favorable”; the “stoichiometry of interaction between ligand and L-SIGN receptor” value was 1,13.

As to `OCC1O[C@H](OCCCl)C(n2cc(CNc3nc4ccccc4[nH]3)nn2)C(O)[C@@H]1O` (some centres unmarked) [Compound 113], on L-SIGN ECD [1], the IC50 stood at 48 µM and the “selectivity for L-SIGN over DC-SIGN” value is given as “more selective against DC-SIGN”.

For `OCC1O[C@H](OCCCl)C(n2cc(CNc3ncc[nH]3)nn2)C(O)[C@@H]1O` (some centres unmarked) [Compound 115], at L-SIGN ECD [1], the IC50 was 15 µM and the “selectivity for L-SIGN over DC-SIGN” value is on record as “up to 75 fold”.

For `OCC1O[C@H](OCCCl)C(n2cc(CNc3ncc[nH]3)nn2)C(O)[C@@H]1O` (some centres unmarked) [Compound 119], at L-SIGN ECD [1], the IC50 is 18 µM and the “inhibits the L-SIGN receptor better than D-mannose” value was “over two orders of magnitude”.

On to `N=C(N)NCc1cn(C2C(OCCn3cc(-c4cc(OCCOCCO)c(C#Cc5cc(OCCOCCO)c(C#Cc6cc(OCCOCCO)c(-c7cn(CCOC8OC(CO)C(O)C(O)C8n8cc(CNC(=N)N)nn8)nn7)cc6OCCOCCO)cc5OCCOCCO)cc4OCCOCCO)nn3)OC(CO)C(O)C2O)nn1` (centres unmarked) [Compound 133], for which, on L-SIGN ECD [3], the Kd turned out to be 52 nM.

Turning to `N=C(N)NCc1cn(C2C(OCCn3cc(COCCOCCOCCn4cc(-c5cc(OCCOCCO)c(C#Cc6cc(OCCOCCO)c(C#Cc7cc(OCCOCCO)c(-c8cn(CCOCCOCCOCc9cn(CCOC%10OC(CO)C(O)C(O)C%10n%10cc(CNC(=N)N)nn%10)nn9)nn8)cc7OCCOCCO)cc6OCCOCCO)cc5OCCOCCO)nn4)nn3)OC(CO)C(O)C2O)nn1` (centres unmarked) [Compound 135], the Kd at L-SIGN ECD [3] came to 25 nM.

With `OCC1O[C@H](OCCCl)C(n2cc(CNC3=NCCCN3)nn2)C(O)[C@@H]1O` (some centres unmarked) [Compound 139], at L-SIGN ECD [1], the concentration for half-maximal inhibition (IC50) worked out at 12 µM and the “selectivity for L-SIGN over DC-SIGN” value is “up to 94 fold”.

As to `COc1ccc2[nH]c(NCc3cn(C4C(O)[C@H](O)C(CO)O[C@@H]4OCCCl)nn3)nc2c1` (some centres unmarked) [Compound 146], the IC50 on L-SIGN ECD [1] stood at 52 µM.

As to `O=C[C@@H](O)[C@@H](O)[C@H](O)[C@H](O)CO` [D-mannose, reference compound], on L-SIGN ECD [1], the IC50 came out at 1940 µM.
